Converted amounts (≈) assume the structure as drawn. “And” between values parts separate entries of the source, which are not always exact repeats. Equal values may be shown once.
What was measured:
[1] = Specific surface measurement, BET method; format: physicochemical; details: for Specific Surface: nitrogen at 77° K, non-micronized
Description: Specific surface measurement was performed with the equipment NOVA 2000 as commercially available from Quantachrome Instruments using the BET method and Nitrogen as the absorbed gas at 77° K (i.e. −196.15° C.) as described e.g. by Medema J, Campagne A.: A Simple Method to Determine Cumulative Surface-Area Distributions of Porous Solids; Journal of Catalysis, Volume 8, Issue 2, pp. 120, 1967.

[2] = Particle size distribution (Malvern, laser diffraction) in suspension; format: physicochemical; details: for Mean particle size (D4,3-value) / Median particle size (d (0.5)-value): non-micronized form, in suspension, after 5 min ultrasonic treatment
Description: Crystalline form Y in a non-micronized form as obtained by Example 1 was used to prepare 25 ml of a suspension as follows:
The suspension was prepared analogously to the method described in Example 6 up to and including the addition of glycerol and liquid glucose. Subsequently, titanium oxide was added under mixing with a suitable homogenizer, followed by the addition of the cherry flavour and of the remaining portion of 56% of the final amount of purified water under mixing until a uniform suspension was obtained.
25 ml of a similar suspension, but without cherry flavour and using 12.148 g of purified water, was prepared analoguously using non-micronized crystalline form I of posaconazole.
The particle size distribution (Malvern) was measured according to the USP <429> and EP 2.9.31. based on the diffraction of laser by particles using a Mastersizer 2000S liquid dispersion system. The particle size measurement was started after ultrasonic treatment of the sample for 5 min.

[3] = Moisture sorption isotherm; format: physicochemical; details: 0-95% RH, 25° C.
Description: The moisture sorption isotherm was recorded with a SPS-11 moisture sorption analyzer (MD Mess-technik, Ulm, D). The measurement cycle was started at 0% relative humidity (RH), increased in 10% steps up to 90% RH and in a 5% step up to 95% RH. The equilibrium condition for each step was set to a constant mass ±0.003% over 49 min. The temperature was 25±0.1° C.

[4] = Stability of form Y within a pharmaceutical formulation (XRPD); format: physicochemical; details: suspension stored at room temperature for 7 weeks
Description: 25 ml of a suspension containing form Y were prepared as follows:
40% of the final amount of Polysorbat 80 and 40% of the final amount of simethicon were mixed and dissolved and/or dispersed in about 12% of the final amount of purified water and homogenized with Ultra Turrax (30 seconds; 27,000 rpm). Subsequently, 1 g of form Y of posaconazole were suspended or dispersed in this mixture under homogenization by Ultra Turrax (27,000 rpm, 2 minutes). The remaining 60% of Polysorbat 80 and of simethicon and 32% of the final amount of the purified water were added and mixed followed by the addition of sodium benzoate, sodium citrate dehydrate and citric acid monohydrate. After further mixing, xanthan gum was added to the mixture under stirring, followed by a 30 minutes phase of hydratization without mixing. Subsequently, glycerol and liquid glucose and of the remaining portion of 56% of the final amount of purified water were added under mixing until a uniform suspension was obtained.
This suspension was stored at room temperature for 7 weeks. A sample of approximately 1 g of the suspension was dried under vacuum over night at room temperature. […]

[5] = Solid state stability of form Y (HPLC assay, polymorphic form); format: physicochemical
Description: HPLC assay was performed by applying the following conditions: • Column: ZORBAX XDB-C18 Rapid Resolution HT, 1.8 μm, 50×4.6 mm (Agilent Technologies) • Eluent A: Dilute 2 ml of acetic acid (99-100%) with water and fill up to 1000 ml with water. Adjust pH to 6.5 with 2.5% ammonia. • Eluent B: water/acetonitrile=50/50 (v/v) • Flow rate: 0.8 ml/min • Temperature: 40° C. • Detection: UV at 260 nm • Gradient:
The solid state stability of form Y was determined by storing approximately 1.0 g of the material in a glass bottle at a) 60° C./100% Relative Humidity (RH), open exposure, for 24 hours and b) at 140° C., closed, for 3 days.
The material was assayed by HPLC for final content and degradation products.

[6] = Stability of an aqueous suspension of form Y; format: physicochemical; details: 120 mg in 3 ml water, room temperature, 4 days
Description: 120 mg form Y were suspended in 3 ml water and the suspension was stirred at room temperature.

[7] = Equilibrium solubility method in water; format: physicochemical
Description: The solubility of form Y was determined by the equilibrium solubility method, which employed a saturated solution of form Y, obtained by stirring 250 mg form Y in 6 ml water over night. The sample was filtered through a 0.45 μm membrane filter and the concentration of form Y in the filtrate was measured using a Perkin Elmer Lambda 35 UV/VIS spectrophotometer (λ=260 nm).

[8] = Dissolution from suspension, USP <711> apparatus II; format: physicochemical; details: suspension of Example 7, paddle 25 rpm, 0.3% SLS aqueous solution
Description: Non-micronized form Y and non-micronized form I were incorporated into formulations having compositions and being prepared according to Example 7.
Dissolution of Form Y and Form I from those formulations was tested according to USP 32 (2009) method <711> (USP apparatus II (Paddle); 25 rpm; dissolution medium: 0.3% SLS aqueous solution). Posaconzole concentrations were determined with an online photometer (UV absorption at 260 nm).

[9] = cited from earlier work
[10] = listed as crystalline form Y of posaconazole
[11] = 60° C./100% RH, open exposure, 24 hours

Q: What does the source list for `CC[C@@H]([C@H](C)O)n1ncn(-c2ccc(N3CCN(c4ccc(OC[C@@H]5CO[C@@](Cn6cncn6)(c6ccc(F)cc6F)C5)cc4)CC3)cc2)c1=O` [Crystalline Form I, posaconazole]?
A: Specific Surface ([1]; listed as Crystalline Form I of posaconazole): 1.5 m^2/g and 1.6 m^2/g; Mean particle size (D4,3-value) [2]: 35.1 μm; Median particle size (d (0.5)-value) [2]: 31.3 μm

Q: With `CC[C@@H]([C@H](C)O)n1ncn(-c2ccc(N3CCN(c4ccc(OC[C@@H]5CO[C@@](Cn6cncn6)(c6ccc(F)cc6F)C5)cc4)CC3)cc2)c1=O` [Crystalline Form Y, posaconazole] as the compound, how does the water uptake [3] read?
A: ≤ 0.4%

Q: What about the “fold larger specific area compared to crystalline form I” value [1] of the same compound?
A: about 2.4 fold

Q: What about the “Specific Surface” value ([1]; listed as Crystalline Form Y of posaconazole) of the same compound?
A: 3.6 m^2/g and 3.7 m^2/g

Q: What about the “Specific Surface” value [1, 10] of the same compound?
A: about 4±1 m^2/g

Q: What about the “polymorphic conversion in suspension (XRPD)” value [4] of the same compound?
A: no conversion to another polymorphic form had occurred

Q: And the “HPLC assay (% initial)” value [5, 11]?
A: 99.9%

Q: And the degradation [5, 11]?
A: No significant degradation observed

Q: What about the “HPLC assay (% initial)” value ([5]; 140° C., closed, 3 days) of the same compound?
A: 99.9%

Q: And the degradation ([5]; 140° C., closed, 3 days)?
A: No significant degradation observed

Q: And the polymorphic conversion ([5]; 24 hours at 100% RH, 60° C.)?
A: not converted into another polymorphic form

Q: What about the “physicochemical properties of the solid after stirring in water” value [6] of the same compound?
A: the same as the physicochemical properties of form Y obtained in Example 1

Q: And the “fold smaller mean particle size compared to non-micronized form I” value ([2]; non-micronized)?
A: about 4 fold

Q: And the “fold smaller median particle size compared to non-micronized form I” value ([2]; non-micronized)?
A: about 5 fold

Q: And the “Mean particle size (D4,3-value)” value [2]?
A: 9.9 μm

Q: What about the “Median particle size (d (0.5)-value)” value [2] of the same compound?
A: 6.0 μm

Q: What about the “Mean particle size (D4,3-value)” value [2, 10] of the same compound?
A: about 10±2 μm

Q: And the “Median particle size (d (0.5)-value)” value [2, 10]?
A: about 6±2 μm

Q: And the “water solubility of form Y relative to form I (times higher)” value [7]?
A: about two

Q: And the solubility ([7]; thermodynamic from solid, saturated solution stirred over night, 0.45 μm filtrate, UV 260 nm)?
A: 1.5 µg/mL (≈ 2.14 µM)

Q: What about the “dissolution compared to non-micronized form I” value [8] of the same compound?
A: clearly faster dissolution

Q: For `CC[C@@H]([C@H](C)O)n1ncn(-c2ccc(N3CCN(c4ccc(OC[C@@H]5CO[C@@](Cn6cncn6)(c6ccc(F)cc6F)C5)cc4)CC3)cc2)c1=O` [posaconazole, 2,5-anhydro-1,3,4-trideoxy-2-C-(2,4-difluorophenyl)-4-[[4-[4-[4-[1-[(1S,2S)-1-ethyl-2-hydroxypropyl]-1,5-dihydro-5-oxo-4H-1,2,4-triazol-4-yl]phenyl]-1-piperazinyl]phenoxy]methyl]-1-(1H-1,2,4-triazol-1-yl)-D-threopentitol], which “log P” value [9] is on record?
A: > 3

— patent US8563555B2, “Pharmaceutical compositions containing a crystalline form of posaconazole” (Sandoz AG, priority 2008, dated 2013)
